Measurements taken from patent US20250057837A1, “Methods for Treating HCV” (priority 2015, published 2025).

What was measured:
[1] = system: GT1a replicon NS3 A156T variant; assay: Resistant colony selection, GT1a subgenomic replicon cells; format: cell-based, hepatitis C virus; settings: A156T in GT1a
[2] = system: GT1b replicon NS3 A156V variant; assay: Resistant colony selection, GT1b subgenomic replicon cells; format: cell-based, hepatitis C virus; settings: A156V in GT1b
[3] = system: GT3a NS3 protease replicon A156G variant; assay: Resistant colony selection, replicon containing GT3a NS3 protease (A156G); format: cell-based, hepatitis C virus; settings: A156G alone
[4] = system: GT3a NS3 protease replicon Q168R co-selected with Y56H; assay: Resistant colony selection, replicon containing GT3a NS3 protease (Q168R+Y56H); format: cell-based, hepatitis C virus
[5] = system: resistance-associated variants in GT 1a (H77) replicon; assay: Activity against resistance-associated variants in GT 1a replicon; format: cell-based, hepatitis C virus
[6] = system: resistance-associated variants in GT 1b (Con-1) replicon; assay: Activity against resistance-associated variants in GT 1b replicon; format: cell-based, hepatitis C virus
[7] = format: in vivo, human; settings: for impact of HCV genotype and RBV coadministration on exposures: GT1-, GT2- or GT3-infected subjects
Description: Blood samples for pharmacokinetic analysis were collected throughout the study treatment period.

[8] = Phase 1 drug-drug interaction with tacrolimus in healthy subjects; settings: coadministered with tacrolimus 1 mg
[9] = Phase 1 drug-drug interaction with cyclosporine in healthy subjects; settings: coadministered with cyclosporine 100 mg
[10] = Phase 1 single and multiple ascending dose and food effect study of Compound 2 in healthy subjects
Description: This was a blinded, randomized, placebo-controlled Phase 1 study. […] Safety and tolerability were assessed throughout the study.

[11] = human, in vivo

| Structure (SMILES) | reduced susceptibility conferred by variant [1] | reduced susceptibility conferred by variant [2] | loss in susceptibility conferred by variant [3] | loss in susceptibility conferred by variant [4] | inhibitory activity against NS3 resistance-associated variants ([5]; V36M, R155K, D168A and D168V in GT 1a (H77)) | activity against variants at NS3 amino acid positions 155 and 168 ([5]; common GT1a variants conferring resistance to other HCV protease inhibitors) | activity against NS5A inhibitor and NS5B inhibitor resistance-associated variants ([5]; e.g. M28T, M28V, Q30D, Q30R, Y93C, Y93H, Y93N, L31V+Y93H, C316Y, M414T, Y448C, Y448H, S556G and S559G in GT1a) | inhibitory activity against NS3 resistance-associated variants ([6]; T54A, R155K, D168V and V170A in GT 1b (Con-1)) | activity against variants at NS3 amino acid positions 155 and 168 ([6]; common GT1b variants conferring resistance to other HCV protease inhibitors) | activity against NS5A inhibitor and NS5B inhibitor resistance-associated variants ([6]; e.g. L28T, Y93H, S282T, C316Y, Y448H and S556G in GT 1b) | impact of HCV genotype and RBV coadministration on exposures [7] | impact of Compound 2 on Compound 1 exposures ([7]; coadministration) | steady-state Cmax, AUC24, and C24 in plasma, change [8] | steady-state AUC24 in plasma, increase [9] | steady-state C24 in plasma, increase [9] | steady-state Cmax in plasma, increase [9] | severity of adverse events ([10]; SAD 1.5-600 mg, MAD 30-600 mg QD 10 days) | maximum tolerated dose ([10]; SAD and MAD portions) | dose-normalized Cmax and AUCt, change [11] |
| --- | --- | --- | --- | --- | --- | --- | --- | --- | --- | --- | --- | --- | --- | --- | --- | --- | --- | --- | --- |
| CC(C)(C)[C@@H]1NC(=O)O[C@@H]2CCC[C@H]2OC/C=C/C(F)(F)c2nc3ccccc3nc2O[C@@H]2C[C@@H](C(=O)N[C@]3(C(=O)NS(=O)(=O)C4(C)CC4)C[C@H]3C(F)F)N(C2)C1=O [Compound 1] | 1400 fold | 1800 fold | 1500 fold | 1100 fold | nearly equivalent to that against wild-type HCV replicon | retained its activity | potent activity | nearly equivalent to that against wild-type HCV replicon | retained its activity | potent activity | no impact | minimal impact |  |  |  |  |  |  |  |
| COC(=O)N[C@H](C(=O)N1CCC[C@H]1c1nc2cc([C@H]3CC[C@H](c4cc5nc([C@@H]6CCCN6C(=O)[C@@H](NC(=O)OC)[C@@H](C)OC)[nH]c5cc4F)N3c3cc(F)c(N4CCC(c5ccc(F)cc5)CC4)c(F)c3)c(F)cc2[nH]1)[C@@H](C)OC [Compound 2] |  |  |  |  |  |  |  |  |  |  | no impact |  | ≤ 2% | 22% | 26% | 11% | mild | not reached |  |
| C=CCN1CC[C@]23c4c5ccc(O)c4O[C@H]2C(=O)CC[C@@]3(O)[C@H]1C5 [naloxone] |  |  |  |  |  |  |  |  |  |  |  |  |  |  |  |  |  |  | ≤ 12% |
